Tests used:
Type in all cases: functional
MCF7 = experiment: Cytotoxicity against human MCF7 cells assessed as growth at 100 uM after 48 hrs by SRB protein assay relative to control; details: MCF7, 48 h, read-out: Activity
NCI-H460 = experiment: Cytotoxicity against human […] cells assessed as growth at 100 uM after 48 hrs by SRB protein assay relative to control; details: NCI-H460, 48 h, read-out: Activity
SF-268 = experiment: Cytotoxicity against human SF268 cells assessed as growth at 100 uM after 48 hrs by SRB protein assay relative to control; details: SF-268, 48 h, read-out: Activity

## COc1ccc(/C=N/NC(=O)Cc2csc3nc(-c4ccc(Br)cc4)cn23)cc1
MCF7
  growth at 100 µM: 46%
NCI-H460
  growth at 100 µM: 34%
SF-268
  growth at 100 µM: 56%

## CN(C)c1ccc(/C=N/NC(=O)Cc2csc3nc(-c4ccc(Br)cc4)cn23)cc1
MCF7
  growth at 100 µM: 82%
NCI-H460
  growth at 100 µM: 69%
SF-268
  growth at 100 µM: 77%

## O=C(Cc1csc2nc(-c3ccc(Br)cc3)cn12)N/N=C/c1ccc(F)cc1
MCF7
  growth at 100 µM: 71%
NCI-H460
  growth at 100 µM: 35%
SF-268
  growth at 100 µM: 84%

## O=C(Cc1csc2nc(-c3ccc(Br)cc3)cn12)N/N=C/c1ccc(Br)cc1
MCF7
  growth at 100 µM: 56%
NCI-H460
  growth at 100 µM: 75%
SF-268
  growth at 100 µM: 107%
